Measurements taken from ChEMBL document CHEMBL5120836, “Discovery of novel 7,8-dihydropteridine-6(5H)-one-based DNA-PK inhibitors as potential anticancer agents via scaffold hopping strategy” (Eur J Med Chem, 2022).
pIC50: −log10 of the molar value. In brackets after ≈: the same amount, converted by molar mass. Activity calls are given as the source filed them. No cut-off for these calls is given here.

Key:
MCF7 [1] = test: Synergistic antiproliferative activity against human MCF7 cells assessed as combination index at 1 uM in presence of 0.1 uM doxorubicin by MTT assay; type: functional
HepG2 [2] = test: Synergistic antiproliferative activity against Doxorubicin-resistant human HepG2 cells assessed as combination index at 100 uM in presence of 0.1 uM doxorubicin by MTT assay; type: functional
[3] = Toxicity in BALB/c nude mouse xenografted with human HL-60 cells assessed as RDW-SD level at 100 mg/kg, po qd for 16 days (reference value: 34 fL); type: organism-based; conditions: in vivo, 384 h, time 16 day
[4] = Toxicity in BALB/c nude mouse xenografted with human HL-60 cells assessed as serum lymphocytes content at 100 mg/kg, po qd for 16 days (reference value: 2.65X10^9/L); type: organism-based; conditions: in vivo, 384 h, time 16 day
[5] = Toxicity in BALB/c nude mouse xenografted with human HL-60 cells assessed as serum WBC content at 100 mg/kg, po qd for 16 days (reference value: 3.8X10^9/L); type: organism-based; conditions: in vivo, 384 h, time 16 day
[6] = molecular target: DNA-dependent protein kinase catalytic subunit (Homo sapiens, UniProt P78527); test: Inhibition of human native full length DNA-PK by ADP-Glo assay
[7] = molecular target: Phosphatidylinositol 4,5-bisphosphate 3-kinase catalytic subunit alpha isoform (Homo sapiens, UniProt P42336); test: Inhibition of human PI3Kalpha by Kinase-Glo assay; type: toxicity
[8] = Toxicity in BALB/c nude mouse xenografted with human HL-60 cells assessed as PCT level at 100 mg/kg, po qd for 16 days (reference value: 0.7%); type: organism-based; conditions: in vivo, 384 h, time 16 day
HepG2 [9] = test: Synergistic antiproliferative activity against Doxorubicin-resistant human HepG2 cells assessed as combination index at 6.25 uM in presence of 0.1 uM doxorubicin by MTT assay; type: functional
[10] = Toxicity in BALB/c nude mouse xenografted with human HL-60 cells assessed as HCT level at 100 mg/kg, po qd for 16 days (reference value: 66.3%); type: organism-based; conditions: in vivo, 384 h, time 16 day
[11] = Toxicity in BALB/c nude mouse xenografted with human HL-60 cells assessed as liver morphological alterations at 100 mg/kg, po qd for 16 days by Hematoxylin and Eosin staining based analysis; type: organism-based; conditions: in vivo, 384 h, time 16 day
HL-60 [12] = test: Synergistic antiproliferative activity against human HL-60 cells assessed as combination index at 3.1 uM in presence of 0.1 uM doxorubicin by MTT assay; type: functional
HCT-116 [13] = test: Induction of apoptosis in human HCT-116 cells assessed as viable cells at 1 uM incubated for 24 hrs by AnnexinV-FITC/PI staining based flow cytometry (reference value: 93.9%); type: functional; conditions: read-out: Activity
[14] = Half life in Sprague-Dawley rat at 5 mg/kg, po; type: ADME, organism-based; conditions: in vivo
[15] = Toxicity in BALB/c nude mouse xenografted with human HL-60 cells assessed as kidney morphological alterations at 100 mg/kg, po qd for 16 days by Hematoxylin and Eosin staining based analysis; type: organism-based; conditions: in vivo, 384 h, time 16 day
MDA-MB-231 [16] = test: Additive antiproliferative activity against human MDA-MB-231 cells assessed as combination index at 200 uM in presence of 0.1 uM doxorubicin by MTT assay; type: functional
HL-60 [17] = test: Synergistic antiproliferative activity against human HL-60 cells assessed as inhibition of cell growth in presence of 100 nM doxorubicin by MTT assay; type: functional, cell-based
[18] = Toxicity in BALB/c nude mouse xenografted with human HL-60 cells assessed as effect on body weight at 100 mg/kg, po qd for 16 days; type: organism-based; conditions: in vivo, 384 h, time 16 day
HCT-116 [19] = test: Induction of apoptosis in human HCT-116 cells assessed as early apoptotic cells at 1 uM incubated for 24 hrs by AnnexinV-FITC/PI staining based flow cytometry (reference value: 3.04%); type: functional
HCT-116 [20] = test: Induction of apoptosis in human HCT-116 cells assessed as late apoptotic cells at 1 uM incubated for 24 hrs in presence of 100 nM doxorubicin by AnnexinV-FITC/PI staining based flow cytometry (reference value: 3.07%); type: functional
HCT-116 [21] = test: Inhibition of cell migration in human HCT-116 cells at 1 uM measured after 24 hrs by wound healing assay; type: functional, cell-based
[22] = Half life in rat liver microsomes; type: ADME, Microsome
MDA-MB-231 [23] = test: Synergistic antiproliferative activity against human MDA-MB-231 cells assessed as combination index at 25 uM in presence of 0.1 uM doxorubicin by MTT assay; type: functional
HCT-116 [24] = test: Disruption of mitochondrial function in human HCT-116 cells assessed as decrease in mitochondrial membrane potential by measuring proportion of cells with green fluorescence at 1 uM incubated for 24 hrs by JC-1 staining based flow cytometry (reference value: 0.566%); type: functional; set-up: scale not given: the % may be the effect or the level left
HCT-116 [25] = test: Induction of apoptosis in human HCT-116 cells assessed as late apoptotic cells at 1 uM incubated for 24 hrs by AnnexinV-FITC/PI staining based flow cytometry (reference value: 3.07%); type: functional
HCT-116 [26] = test: Induction of apoptosis in human HCT-116 cells assessed as necrotic cells at 1 uM incubated for 24 hrs in presence of 100 nM doxorubicin by AnnexinV-FITC/PI staining based flow cytometry (reference value: 0.031%); type: functional
MCF7 [27] = test: Synergistic antiproliferative activity against human MCF7 cells assessed as combination index at 0.1 uM in presence of 0.1 uM doxorubicin by MTT assay; type: functional
HCT-116 [28] = test: Induction of apoptosis in human HCT-116 cells assessed as viable cells at 1 uM incubated for 24 hrs in presence of 100 nM doxorubicin by AnnexinV-FITC/PI staining based flow cytometry (reference value: 93.9%); type: functional; conditions: read-out: Activity
[29] = Half life in human liver microsomes; type: ADME, Microsome
HL-60 [30] = test: Synergistic antiproliferative activity against human HL-60 cells assessed as combination index at 12.5 uM in presence of 0.1 uM doxorubicin by MTT assay; type: functional
[31] = Intrinsic clearance in rat liver microsomes; type: ADME, Microsome; conditions: read-out: CLH
in vitro = conditions: human, Caco-2
Description: Efflux ratio of apparent permeability across basolateral to apical side over apical to basolateral side in human Caco-2 cells

[32] = Kinetic solubility of the compound in phosphate-buffered solution at pH 6.4 incubated for 24 hrs by HPLC-MS/MS analysis; type: physicochemical; conditions: phosphate buffer, read-out: Kinetic_solubility
[33] = Kinetic solubility of the compound in phosphate-buffered solution at pH 7.4 incubated for 24 hrs by HPLC-MS/MS analysis; type: physicochemical; conditions: phosphate buffer, read-out: Kinetic_solubility
HCT-116 [34] = test: Antiproliferative activity against human HCT-116 cells assessed as inhibition of cell growth incubated for 48 hrs by MTT assay; type: functional, cell-based; conditions: HCT-116, 48 h
[35] = Toxicity in BALB/c nude mouse xenografted with human HL-60 cells assessed as effect on body weight at 100 mg/kg, po qd for 16 days co-administered with doxorubicin; type: organism-based; conditions: in vivo, 384 h, time 16 day
HL-60 [36] = test: Synergistic antitumor activity against human HL-60 cells xenografted in BALB/c nude mouse assessed as tumor weight at 100 mg/kg, po qd for 16 days co-administered with doxorubicin (reference value: 27.9%); type: functional; conditions: HL-60, 384 h, time 16 day
MDA-MB-231 [37] = test: Synergistic antiproliferative activity against human MDA-MB-231 cells assessed as combination index at 1 uM in presence of 0.1 uM doxorubicin by MTT assay; type: functional

Phosphatidylinositol 4,5-bisphosphate 3-kinase catalytic subunit alpha isoform, sequence (P42336 whole entry, canonical isoform): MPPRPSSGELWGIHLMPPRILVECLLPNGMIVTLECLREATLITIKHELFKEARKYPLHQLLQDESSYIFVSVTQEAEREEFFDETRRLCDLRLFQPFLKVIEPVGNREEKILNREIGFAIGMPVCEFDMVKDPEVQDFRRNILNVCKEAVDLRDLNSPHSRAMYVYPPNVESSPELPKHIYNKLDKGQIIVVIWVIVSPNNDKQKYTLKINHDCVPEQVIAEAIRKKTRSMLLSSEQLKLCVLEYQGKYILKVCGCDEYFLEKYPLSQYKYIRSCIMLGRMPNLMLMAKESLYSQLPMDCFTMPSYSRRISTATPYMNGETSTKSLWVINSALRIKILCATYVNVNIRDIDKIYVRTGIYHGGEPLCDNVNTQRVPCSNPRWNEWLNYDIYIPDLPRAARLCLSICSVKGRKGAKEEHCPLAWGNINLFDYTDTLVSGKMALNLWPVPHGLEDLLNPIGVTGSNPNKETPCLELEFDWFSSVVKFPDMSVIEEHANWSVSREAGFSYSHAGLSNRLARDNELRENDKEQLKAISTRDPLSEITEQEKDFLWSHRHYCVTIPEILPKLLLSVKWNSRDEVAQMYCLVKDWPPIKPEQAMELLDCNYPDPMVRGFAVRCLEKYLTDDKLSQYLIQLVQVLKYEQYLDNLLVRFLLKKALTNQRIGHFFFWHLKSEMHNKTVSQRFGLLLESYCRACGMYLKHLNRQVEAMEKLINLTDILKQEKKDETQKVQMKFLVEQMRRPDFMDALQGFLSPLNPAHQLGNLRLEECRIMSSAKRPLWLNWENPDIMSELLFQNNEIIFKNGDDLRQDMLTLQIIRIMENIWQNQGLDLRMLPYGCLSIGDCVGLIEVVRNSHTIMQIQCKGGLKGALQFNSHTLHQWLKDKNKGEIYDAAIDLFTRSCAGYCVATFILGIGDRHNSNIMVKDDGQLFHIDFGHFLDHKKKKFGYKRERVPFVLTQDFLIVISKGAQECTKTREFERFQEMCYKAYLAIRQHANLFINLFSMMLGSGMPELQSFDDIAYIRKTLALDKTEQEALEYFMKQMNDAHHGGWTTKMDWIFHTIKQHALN
DNA-dependent protein kinase catalytic subunit, sequence (P78527 whole entry, canonical isoform): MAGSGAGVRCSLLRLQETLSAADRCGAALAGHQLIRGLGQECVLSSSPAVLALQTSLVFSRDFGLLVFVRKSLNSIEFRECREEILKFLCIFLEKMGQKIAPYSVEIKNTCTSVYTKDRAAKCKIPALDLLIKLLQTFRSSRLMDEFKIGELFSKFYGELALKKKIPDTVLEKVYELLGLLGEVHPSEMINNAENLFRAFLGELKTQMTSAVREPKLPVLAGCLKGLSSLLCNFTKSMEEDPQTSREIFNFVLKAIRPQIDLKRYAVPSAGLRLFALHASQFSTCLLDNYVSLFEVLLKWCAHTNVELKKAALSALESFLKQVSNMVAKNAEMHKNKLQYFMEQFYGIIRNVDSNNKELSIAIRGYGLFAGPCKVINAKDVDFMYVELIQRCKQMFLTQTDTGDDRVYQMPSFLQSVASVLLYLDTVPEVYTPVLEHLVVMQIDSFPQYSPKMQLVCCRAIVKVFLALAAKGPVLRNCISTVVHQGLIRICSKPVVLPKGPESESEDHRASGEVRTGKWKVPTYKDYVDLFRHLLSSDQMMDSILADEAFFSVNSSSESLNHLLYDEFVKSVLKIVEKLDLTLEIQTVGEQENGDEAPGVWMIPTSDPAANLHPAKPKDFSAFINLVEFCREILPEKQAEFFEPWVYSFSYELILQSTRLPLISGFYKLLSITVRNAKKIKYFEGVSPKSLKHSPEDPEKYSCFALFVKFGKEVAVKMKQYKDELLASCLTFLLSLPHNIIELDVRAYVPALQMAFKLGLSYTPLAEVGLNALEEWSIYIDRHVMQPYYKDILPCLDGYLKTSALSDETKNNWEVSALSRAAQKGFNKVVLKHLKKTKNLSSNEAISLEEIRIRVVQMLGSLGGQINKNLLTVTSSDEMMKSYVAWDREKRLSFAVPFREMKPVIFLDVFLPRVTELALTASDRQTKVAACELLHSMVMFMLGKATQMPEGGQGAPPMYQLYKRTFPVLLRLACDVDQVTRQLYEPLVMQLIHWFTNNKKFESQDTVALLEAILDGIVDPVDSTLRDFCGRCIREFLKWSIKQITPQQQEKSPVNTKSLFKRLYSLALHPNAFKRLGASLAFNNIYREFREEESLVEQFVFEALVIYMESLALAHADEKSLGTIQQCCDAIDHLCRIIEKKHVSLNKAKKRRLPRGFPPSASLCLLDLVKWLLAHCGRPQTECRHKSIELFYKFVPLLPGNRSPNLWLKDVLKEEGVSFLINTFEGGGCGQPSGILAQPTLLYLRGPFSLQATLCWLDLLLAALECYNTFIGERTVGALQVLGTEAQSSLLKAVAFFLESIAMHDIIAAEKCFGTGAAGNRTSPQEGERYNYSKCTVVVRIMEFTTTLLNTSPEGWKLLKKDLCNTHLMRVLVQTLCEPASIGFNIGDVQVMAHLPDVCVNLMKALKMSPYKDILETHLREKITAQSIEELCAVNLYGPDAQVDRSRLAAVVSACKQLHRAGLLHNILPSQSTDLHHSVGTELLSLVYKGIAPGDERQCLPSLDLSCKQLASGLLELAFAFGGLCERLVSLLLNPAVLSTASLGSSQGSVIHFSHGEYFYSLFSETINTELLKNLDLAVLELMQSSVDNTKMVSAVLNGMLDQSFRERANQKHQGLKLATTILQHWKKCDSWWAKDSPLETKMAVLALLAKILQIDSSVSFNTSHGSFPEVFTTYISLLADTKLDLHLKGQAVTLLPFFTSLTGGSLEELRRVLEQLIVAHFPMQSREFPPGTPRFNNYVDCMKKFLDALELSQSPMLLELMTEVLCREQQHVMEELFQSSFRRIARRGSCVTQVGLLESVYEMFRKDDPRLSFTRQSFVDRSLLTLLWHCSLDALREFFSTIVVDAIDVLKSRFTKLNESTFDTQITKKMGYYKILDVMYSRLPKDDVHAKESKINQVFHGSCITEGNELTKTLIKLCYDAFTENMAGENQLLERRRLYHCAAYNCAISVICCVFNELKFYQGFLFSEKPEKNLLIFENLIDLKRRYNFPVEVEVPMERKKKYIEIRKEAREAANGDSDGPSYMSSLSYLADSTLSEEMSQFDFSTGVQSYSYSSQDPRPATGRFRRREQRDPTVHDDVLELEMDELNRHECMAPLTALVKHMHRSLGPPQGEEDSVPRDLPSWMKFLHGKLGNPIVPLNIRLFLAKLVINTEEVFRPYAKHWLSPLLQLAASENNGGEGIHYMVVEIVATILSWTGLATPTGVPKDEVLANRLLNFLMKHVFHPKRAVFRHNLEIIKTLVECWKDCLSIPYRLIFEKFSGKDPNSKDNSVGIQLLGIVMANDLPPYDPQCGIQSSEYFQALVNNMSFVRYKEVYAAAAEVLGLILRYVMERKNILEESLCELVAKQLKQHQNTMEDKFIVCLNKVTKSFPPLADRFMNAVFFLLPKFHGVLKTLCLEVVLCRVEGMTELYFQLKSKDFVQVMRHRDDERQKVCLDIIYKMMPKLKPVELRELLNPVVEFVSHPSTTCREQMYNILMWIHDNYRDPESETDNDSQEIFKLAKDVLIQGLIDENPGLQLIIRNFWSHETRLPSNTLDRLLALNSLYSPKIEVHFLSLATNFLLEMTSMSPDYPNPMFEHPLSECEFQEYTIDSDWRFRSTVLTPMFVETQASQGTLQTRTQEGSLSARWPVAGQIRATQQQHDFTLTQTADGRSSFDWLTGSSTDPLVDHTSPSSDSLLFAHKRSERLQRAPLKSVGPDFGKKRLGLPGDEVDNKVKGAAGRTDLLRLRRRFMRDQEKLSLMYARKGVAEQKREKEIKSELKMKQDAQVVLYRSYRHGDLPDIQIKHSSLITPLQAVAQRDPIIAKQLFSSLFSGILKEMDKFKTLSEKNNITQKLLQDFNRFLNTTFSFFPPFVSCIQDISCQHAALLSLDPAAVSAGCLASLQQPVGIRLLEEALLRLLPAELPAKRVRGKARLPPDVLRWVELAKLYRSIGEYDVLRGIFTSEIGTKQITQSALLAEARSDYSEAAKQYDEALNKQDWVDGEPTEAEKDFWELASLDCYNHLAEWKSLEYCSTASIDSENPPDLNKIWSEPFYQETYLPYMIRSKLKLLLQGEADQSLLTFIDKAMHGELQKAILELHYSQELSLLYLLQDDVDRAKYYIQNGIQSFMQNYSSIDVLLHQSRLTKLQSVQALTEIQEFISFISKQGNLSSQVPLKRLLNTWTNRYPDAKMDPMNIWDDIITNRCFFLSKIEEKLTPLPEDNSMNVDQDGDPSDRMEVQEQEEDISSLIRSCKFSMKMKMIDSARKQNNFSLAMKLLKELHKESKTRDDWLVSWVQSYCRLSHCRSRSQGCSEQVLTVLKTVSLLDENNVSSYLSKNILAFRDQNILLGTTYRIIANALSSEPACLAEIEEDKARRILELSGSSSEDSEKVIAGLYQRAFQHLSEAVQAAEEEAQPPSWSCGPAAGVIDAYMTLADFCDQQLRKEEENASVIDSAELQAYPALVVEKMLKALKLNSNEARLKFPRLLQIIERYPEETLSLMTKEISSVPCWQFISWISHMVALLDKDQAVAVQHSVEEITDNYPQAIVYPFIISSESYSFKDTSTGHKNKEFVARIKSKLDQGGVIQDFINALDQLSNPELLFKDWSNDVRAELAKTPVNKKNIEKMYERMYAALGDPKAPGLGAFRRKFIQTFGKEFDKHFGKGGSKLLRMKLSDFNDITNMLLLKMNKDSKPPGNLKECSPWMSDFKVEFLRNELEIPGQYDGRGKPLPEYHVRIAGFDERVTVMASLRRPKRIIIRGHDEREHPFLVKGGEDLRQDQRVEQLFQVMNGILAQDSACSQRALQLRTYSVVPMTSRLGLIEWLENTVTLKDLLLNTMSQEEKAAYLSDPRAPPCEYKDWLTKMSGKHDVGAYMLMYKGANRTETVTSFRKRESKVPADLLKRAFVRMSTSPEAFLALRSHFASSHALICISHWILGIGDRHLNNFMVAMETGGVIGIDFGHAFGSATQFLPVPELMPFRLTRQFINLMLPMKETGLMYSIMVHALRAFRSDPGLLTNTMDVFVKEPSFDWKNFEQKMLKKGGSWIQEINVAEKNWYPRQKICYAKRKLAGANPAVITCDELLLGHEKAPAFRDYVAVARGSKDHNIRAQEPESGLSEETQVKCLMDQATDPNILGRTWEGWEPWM

pIC50 [6]: 9.10
half-life [14]: 1.59 h
pIC50 (HL-60 [17]): > 7.00
half-life [22]: > 2.42 h
half-life [29]: > 2.42 h
microsomal CLint [31]: < 9.6 µL/min/mg
efflux ratio (in vitro): 4.84
solubility kinetic at 24 h [32]: 0.0722 mg/mL (≈ 183 µM)
solubility kinetic at 24 h [33]: 0.08 mg/mL (≈ 203 µM)
pIC50 (HCT-116 [34]): 4.62
SMILES: Cc1cc2ncnn2cc1Nc1ncc2c(n1)N(C1CCOCC1)CC(=O)N2C
CI (MCF7 [1]): 0.03832
CI (HepG2 [2]): 0.1244
Activity [3]: 36 fL
Activity [4]: 3.2 10^9/L
Activity [5]: 4.35 10^9/L
pIC50 [7]: 6.73
Activity [8]: 0.641%
CI (HepG2 [9]): 0.0268
Activity [10]: 65.1%
Activity [11]: Non-Toxic
CI (HL-60 [12]): 0.01772
viability at 1 µM (HCT-116 [13]): 92.5%
Activity [15]: Non-Toxic
CI (MDA-MB-231 [16]): 1.006
Activity [18]: Non-Toxic
Activity (HCT-116 [19]): 3.46%
Activity (HCT-116 [20]): 7.51%
inhibition (HCT-116 [21]): Active
CI (MDA-MB-231 [23]): 0.5933
Activity (HCT-116 [24]): 3.55%
Activity (HCT-116 [25]): 4.05%
Activity (HCT-116 [26]): 0.002%
CI (MCF7 [27]): 0.2844
viability at 1 µM (HCT-116 [28]): 79.1%
CI (HL-60 [30]): 0.06945
Activity [35]: Non-Toxic
inhibition in vivo at 100 mg/kg (HL-60 [36]): 52.4%
CI (MDA-MB-231 [37]): 0.2676
